According to patent publication US4007267A, “Antibiotic B-98891” (priority 1974, dated 1977):
In brackets after ≈: the same amount, converted by molar mass. Entries after “also recorded” stand apart in the source; their conditions may differ. Read-outs that look alike come from different tables or passages of the source.

Tests used:
[1] = tested on: Saccharomyces cerevisiae IFO-0209; test: Antimicrobial spectrum (in vitro), agar dilution and diffusion methods; type: cell-based; conditions: medium A, 28 °C, time 40
Erysiphe graminis = test: Activity against powdery mildew of barley (seedlings in test tubes); conditions: for Percent area of lesion: 18 °C, 7 days
Method: The unfolded leaves were inoculated with conidia of Erysiphe graminis using a small brush and each stock was kept in a test tube at 18° C for 7 days. The percent area of the resultant lesion was calculated to determine the effect of the test drug.

powdery mildew of pepper = test: Control test of powdery mildew of pepper
Method: (§6) The control chemical was also similarly diluted with water.
The reverse sides of unfolded leaves of pot-grown pepper plants (9 to 10-leaf stage, Capsicum annuum L. f. California Wonder) were inoculated, by dusting, with the pathogenic fungi from infected leaves. Two days later, the leaves were sprayed with adequate volume of test solutions as in Test Example 1. Then, the plants were grown and cared in a green-house and, after timed intervals, the percent area of fungal growth was determined. This test was performed in duplicate for each group.

[2] = tested on: Sphaerotheca fuliginea (Schlechtendahl) Pollacci; test: Control test of powdery mildew of oriental melon; type: in vivo
[3] = tested on: Rhodotorula rubra IFO-0870; test: Antimicrobial spectrum (in vitro), agar dilution and diffusion methods; type: cell-based; conditions: medium A, 28 °C, time 40
Japanese killifish = test: Fish toxicity test; type: in vivo; conditions: 20 ppm, 7 days observation
[4] = tested on: certain gram-positive bacteria, gram-negative bacteria, phytopathogenic fungi and certain yeasts; test: Antimicrobial spectrum, summary; type: cell-based; conditions: in vitro
Method: (§1) The antimicrobial spectrum of the antibiotic B-98891 as measured by the agar dilution and diffusion methods is shown in Table 3. The "diameter of inhibition zone" in the table represents the diameter of the inhibition zone formed around a paper disc(7 mm. in diameter) immersed in a 5000 μg/ml. solution of the present antibiotic.

[5] = tested on: Sclerotinia sclerotiorum IFO-9395; test: Antimicrobial spectrum (in vitro), agar dilution and diffusion methods; type: cell-based; conditions: medium A, 28 °C, time 40
powdery mildew of rose [6] = test: Control test of the powdery mildew of rose (Arlene Francis); type: in vivo
Method: (§2) For this test, rose (Rosa spp.) plants were grown in pots at a green-house.As test plants (forma species: Super Star and Arlene Francis) were used in groups of 3 pots per treatment. […] The number of diseased leaflets on three branches per pot was investigated 7 days after the third application and the percentage of diseased leaflets relative to the total number of leaflets investigated was calculated.

[7] = tested on: Penicillium expansum IFO-7813; test: Antimicrobial spectrum (in vitro), agar dilution and diffusion methods; type: cell-based; conditions: medium A, 28 °C, time 40
[8] = tested on: Sphaerotheca fuliginea Pollacci; test: Control effect against drug-resistant powdery mildew on cucumber; conditions: 40 ppm, 7 days
Excerpt: as §6
The leaves of a cucumber plant (Cucumis sativus L. f. Suyo) infected with powdery mildew were flipped over a 1-month cucumber plant in a pot so that the latter was inoculated with Sphaerotheca fuliginea Pollacci. After 1 day, the fungicidal solutions prepared in the same manner as Test Example 1 were sprayed in sufficient volume over the plant. After about 14 days, the fungal growth formed were used to further inoculate intact cucumber plants. One day after the inoculation, fungicidal solution was sprayed and, after 7 days, the percent area of the lesion was determined.

Botrytis cinerea TKF-12 = test: Antimicrobial spectrum (in vitro), agar dilution and diffusion methods; type: cell-based; conditions: medium A, 20 °C, time 88
Method: as §1
(§3) A 3.0 % sucrose, 0.2 % L-asparagine, 0.3 % NH4 NO3, 0.1 % KH2 PO4, 0.1 % MgSO4.7H2 O, 0.001 % versenol (manufactured by Dow Chemical Co.; an iron chelate compound; content of iron-sodium ethanol ethylene diamine triacetate is 57.04 %), 1.5 % agar (pH 7) Before use, the following vitamins are added to the medium to the indicated final concentrations. 1 μg/ml. thiamine, 1 μg/ml. riboflavin, 1 μg/ml. calcium pantothenate, 1 μg/ml. niacin, 0.005 μg/ml. biotin, 0.5 μg/ml. folic acid, 2 μg/ml. pyridoxine hydrochloride, 0.5 μg/ml. p-aminobenzoic acid, 0.0002 μg/ml. cyanocobalamin

[9] = tested on: Guignardia laricina IFO-7888; test: as above; type: cell-based; conditions: medium A, 28 °C, time 88
Method: as §1, §3

[10] = tested on: powdery mildew of apple plant; test: Control test of powdery mildew of apple plant; type: in vivo; conditions: 12 days
Method: as §6
The seedlings of the apple (Malus pumila Miller var. domestica Schneider f. Rall's Janet) in their 5- to 8-leaf stage were employed. The pathogenic fungi on diseased leaves of an apple plant were dusted over the tops of the seedlings which, then, were kept in a green-house. […] After the application, the seedlings were further grown in a green-house. After 12 days, the percent area of the lesion was investigated. The test was conducted in hexaplicate for each group.

[11] = tested on: Penicillium chrysogenum IFO-4626; test: Antimicrobial spectrum (in vitro), agar dilution and diffusion methods; type: cell-based; conditions: medium A, 28 °C, time 40
powdery mildew of barley = test: Control test of powdery mildew of barley (pots); type: in vivo, Erysiphe graminis
[12] = tested on: Aspergillus niger IFO-4066; test: Antimicrobial spectrum (in vitro), agar dilution and diffusion methods; type: cell-based; conditions: medium A, 28 °C, time 40
[13] = tested on: Mycobacterium smegmatis ATCC-607; test: as above; type: cell-based; conditions: medium C, 37 °C, time 40
Method: as §1
(§4) C 3.0 % glycerin, 0.5 % Ehrlich's meat extract, 0.5 % polypeptone, 0.5 % NaCl, 1.5 % agar (pH 7.0)

[14] = tested on: Mycobacterium phlei IFO-3158; test: as above; type: cell-based; conditions: medium C, 37 °C, time 40
Method: as §1, §4

powdery mildew of rose [15] = test: Control test of the powdery mildew of rose (Super Star); type: in vivo
Method: as §2

[16] = tested on: Phytophthora infestans (Montagne) de Bary; type: in vivo
[17] = tested on: powdery mildew of tobacco plant; test: Control test of powdery mildew of tobacco plant
Method: as §6
Tobacco plants (Nicotiana tabacum L. f. MC) grown in pots, with the fourth mature leaf sufficiently unfolded, were prepared in a green-house, two pots per group, for this test. To encourage the onset of the disease, the pots of diseased plants were placed next to the test pots for spontaneous infection. The fungicidal solutions were prepared in the same manner as Test Example 1 and sprayed onto the test plants in two divided doses, each in sufficient volume, at intervals of 10 days. The percent area of the lesion was investigated 9 days and 15 days, respectively, after the last application.

[18] = tested on: powdery mildew of oak tree; test: Control test of powdery mildew of oak tree
Method: as §6
This test was conducted with shoots of naturally grown oak (Quercus glauca Thunb.) trees about 10 years old. The fungicidal solutions prepared in the same manner as Test Example 1 were applied in mists.
The old mature leaves had already been severely diseased and, therefore, spontaneous infection of young leaves on the shoots was expected.
The number of treated leaves was 50 per group. The percent area of the lesion on treated leaves was investigated at 7 days after the treatment.

[19] = tested on: Trichophyton mentagrophytes IFO-5809; test: Antimicrobial spectrum (in vitro), agar dilution and diffusion methods; type: cell-based; conditions: medium D, 28 °C, time 88
Method: as §1

[20] = tested on: Staphylococcus aureus IFO-3061; test: as above; type: cell-based; conditions: medium B, 37 °C, time 20
Method: as §1
(§5) B 0.5 % ehrlich's meat extract, 0.5 % polypeptone, 0.5 % NaCl, 1.5 % agar (pH 7)

[21] = tested on: Escherichia coli IFO-3044; test: as above; type: cell-based; conditions: medium B, 37 °C, time 20
Method: as §1, §5

[22] = tested on: Proteus vulgaris IFO-3045; test: as above; type: cell-based; conditions: medium B, 37 °C, time 20
Method: as §1, §5

[23] = tested on: Pseudomonas aeruginosa IFO-3080; test: as above; type: cell-based; conditions: medium B, 37 °C, time 20
Method: as §1, §5

[24] = tested on: Bacillus subtilis IFO-3513; test: as above; type: cell-based; conditions: medium B, 37 °C, time 20
Method: as §1, §5

[25] = tested on: Candida albicans IFO-0583; test: as above; type: cell-based; conditions: medium A, 28 °C, time 40
[26] = tested on: Pyricularia oryzae IFO-5279; type: cell-based; conditions: medium A, 28 °C, time 40
[27] = tested on: Cochliobolus miyabeanus IFO-5277; test: Antimicrobial spectrum (in vitro), agar dilution and diffusion methods; type: cell-based; conditions: medium A, 28 °C, time 40

NC(N)=NCC(O)CC(O)(C(=O)O)[C@H]1O[C@@H](n2cc(CO)c(N)nc2=O)C=C[C@@H]1NC(=O)[C@@H](N)CO (some centres unmarked) [B-98891]
toxicity in rats (summary) (Acute toxicity in rats): mild | LD50 (Acute toxicity in rats; intravenous): > 500 mg/kg | LD50 (Acute toxicity in rats; oral): > 2000 mg/kg | Minimal inhibitory concentration [1]: > 500 µg/mL | Diameter of inhibition zone ([1]; paper disc 7 mm, 5000 μg/ml): 12 mm | Percent area of lesion (Erysiphe graminis; 3.12 ppm): 40% | Percent area of lesion (Erysiphe graminis; 6.25 ppm): 26% | Percent area of lesion (Erysiphe graminis; 12.5 ppm): 0% | Percent area of lesion (Erysiphe graminis; 25 ppm): 0% | Percent area of lesion (Erysiphe graminis; 50 ppm): 0% | onset control activity (Erysiphe graminis; compared with the commercially available chemical (Benomyl wettable powder)): more potent onset control activity than the commercially available chemical | activity against the causative agent of powdery mildew of barley (Erysiphe graminis) (summary) (Erysiphe graminis; in vivo): characteristically high activity | Percent area of the lesion (powdery mildew of pepper; 80 ppm, 7 days): 7.9% | Percent area of the lesion (powdery mildew of pepper; 80 ppm, 10 days): 10.3% | Percent area of the lesion (powdery mildew of pepper; 160 ppm, 7 days): 5.0% | Percent area of the lesion (powdery mildew of pepper; 160 ppm, 10 days): 4.6% | Percent area of the lesion ([2]; 40 ppm, 7 days): 0% | Percent area of the lesion ([2]; 40 ppm, 14 days): 19.0% | Percent area of the lesion ([2]; 40 ppm, 21 days): 40.0% | Percent area of the lesion ([2]; 80 ppm, 7 days): 1.5% | Percent area of the lesion ([2]; 80 ppm, 14 days): 7.0% | Percent area of the lesion ([2]; 80 ppm, 21 days): 24.0% | Percent area of the lesion ([2]; 160 ppm, 7 days): 0.6% | Percent area of the lesion ([2]; 160 ppm, 14 days): 0.6% | Percent area of the lesion ([2]; 160 ppm, 21 days): 5.0% | Minimal inhibitory concentration [3]: 50 µg/mL (≈ 97.2 µM) | Diameter of inhibition zone ([3]; paper disc 7 mm, 5000 μg/ml): 80 mm | fish toxicity (Japanese killifish): no toxic effect; also recorded: substantially harmless to fish | antimicrobial activity [4]: weakly active | Minimal inhibitory concentration [5]: 500 µg/mL (≈ 972 µM) | Diameter of inhibition zone ([5]; paper disc 7 mm, 5000 μg/ml): 20 mm | Percent of diseased leaflet (powdery mildew of rose [6]; 40 ppm): 14.9% | Percent of diseased leaflet (powdery mildew of rose [6]; 80 ppm): 6.7% | Percent of diseased leaflet (powdery mildew of rose [6]; 160 ppm): 2.2% | Minimal inhibitory concentration [7]: 100 µg/mL (≈ 194 µM) | Diameter of inhibition zone ([7]; paper disc 7 mm, 5000 μg/ml): 25 mm | Percent area of lesion ([8]; inoculum: control (untreated)): 15.8% | Percent area of lesion ([8]; inoculum: lesions after application of B-98891 (80ppm)): 18.3% | Percent area of lesion ([8]; inoculum: lesions after application of Benlate WP (250 ppm)): 21.7% | Minimal inhibitory concentration (Botrytis cinerea TKF-12): 250 µg/mL (≈ 486 µM) | Diameter of inhibition zone (Botrytis cinerea TKF-12; paper disc 7 mm, 5000 μg/ml): 15 mm | Minimal inhibitory concentration [9]: 100 µg/mL (≈ 194 µM) | Diameter of inhibition zone ([9]; paper disc 7 mm, 5000 μg/ml): 18 mm | Percent area of the lesion ([10]; 40 ppm): 0.9% | Percent area of the lesion ([10]; 80 ppm): 0.6% | Percent area of the lesion ([10]; 160 ppm): 0% | Minimal inhibitory concentration [11]: > 500 µg/mL | Diameter of inhibition zone ([11]; paper disc 7 mm, 5000 μg/ml): 13 mm | Percent area of lesions (powdery mildew of barley; 15.6 ppm, 6th leaf, A: 10 days after first application): 0.4% | Percent area of lesions (powdery mildew of barley; 15.6 ppm, 6th leaf, B: 10 days after second application): 2.1% | Percent area of lesions (powdery mildew of barley; 15.6 ppm, 6th leaf, C: 10 days after third application): 0.8% | Percent area of lesions (powdery mildew of barley; 15.6 ppm, 9th leaf, B: 10 days after second application): 2.3% | Percent area of lesions (powdery mildew of barley; 15.6 ppm, 9th leaf, C: 10 days after third application): 10.5% | Percent area of lesions (powdery mildew of barley; 31.2 ppm, 6th leaf, A: 10 days after first application): 0.3% | Percent area of lesions (powdery mildew of barley; 31.2 ppm, 6th leaf, B: 10 days after second application): 2.0% | Percent area of lesions (powdery mildew of barley; 31.2 ppm, 6th leaf, C: 10 days after third application): 1.3% | Percent area of lesions (powdery mildew of barley; 31.2 ppm, 9th leaf, B: 10 days after second application): 0.3% | Percent area of lesions (powdery mildew of barley; 31.2 ppm, 9th leaf, C: 10 days after third application): 1.3% | Percent area of lesions (powdery mildew of barley; 62.5 ppm, 6th leaf, A: 10 days after first application): 0.1% | Percent area of lesions (powdery mildew of barley; 62.5 ppm, 6th leaf, B: 10 days after second application): 0.1% | Percent area of lesions (powdery mildew of barley; 62.5 ppm, 6th leaf, C: 10 days after third application): 0% | Percent area of lesions (powdery mildew of barley; 62.5 ppm, 9th leaf, B: 10 days after second application): 0.5% | Percent area of lesions (powdery mildew of barley; 62.5 ppm, 9th leaf, C: 10 days after third application): 0.4% | Minimal inhibitory concentration [12]: > 500 µg/mL | Minimal inhibitory concentration [13]: 250 µg/mL (≈ 486 µM) | Diameter of inhibition zone ([13]; paper disc 7 mm, 5000 μg/ml): 24 mm | Minimal inhibitory concentration [14]: 50 µg/mL (≈ 97.2 µM) | Diameter of inhibition zone ([14]; paper disc 7 mm, 5000 μg/ml): 27 mm | Percent of diseased leaflet (powdery mildew of rose [15]; 40 ppm): 5.6% | Percent of diseased leaflet (powdery mildew of rose [15]; 80 ppm): 3.2% | Percent of diseased leaflet (powdery mildew of rose [15]; 160 ppm): 2.6% | Degree of sporulation ([16]; 250 ppm): Moderate | Percent area of lesions ([16]; 250 ppm): 100% | Degree of sporulation ([16]; 500 ppm): None | Percent area of lesions ([16]; 500 ppm): 0% | Percent area of lesion ([17]; 40 ppm, 9 days): 11.6% | Percent area of lesion ([17]; 40 ppm, 15 days): 20.4% | Percent area of lesion ([17]; 80 ppm, 9 days): 10.0% | Percent area of lesion ([17]; 80 ppm, 15 days): 13.2% | Percent area of lesion ([17]; 160 ppm, 9 days): 6.0% | Percent area of lesion ([17]; 160 ppm, 15 days): 8.5% | Percent area of lesion ([18]; 40 ppm, 7 days): 8.3% | Percent area of lesion ([18]; 40 ppm, 14 days): 26.4% | Percent area of lesion ([18]; 80 ppm, 7 days): 1.1% | Percent area of lesion ([18]; 80 ppm, 14 days): 1.5% | Percent area of lesion ([18]; 160 ppm, 7 days): 0.6% | Percent area of lesion ([18]; 160 ppm, 14 days): 0.5% | Minimal inhibitory concentration [19]: 500 µg/mL (≈ 972 µM) | Minimal inhibitory concentration [20]: > 500 µg/mL | Diameter of inhibition zone ([20]; paper disc 7 mm, 5000 μg/ml): 10 mm | Minimal inhibitory concentration [21]: 500 µg/mL (≈ 972 µM) | Diameter of inhibition zone ([21]; paper disc 7 mm, 5000 μg/ml): 14 mm | Minimal inhibitory concentration [22]: > 500 µg/mL | Diameter of inhibition zone ([22]; paper disc 7 mm, 5000 μg/ml): 11 mm | Minimal inhibitory concentration [23]: > 500 µg/mL | Minimal inhibitory concentration [24]: > 500 µg/mL | Diameter of inhibition zone ([24]; paper disc 7 mm, 5000 μg/ml): 14 mm | Minimal inhibitory concentration [25]: > 500 µg/mL | toxicity in mice (summary) (Acute toxicity in mice): mild | LD50 (Acute toxicity in mice; intravenous): > 500 mg/kg | LD50 (Acute toxicity in mice; oral): > 2000 mg/kg | Minimal inhibitory concentration [26]: > 500 µg/mL | Minimal inhibitory concentration [27]: > 500 µg/mL | Diameter of inhibition zone ([27]; paper disc 7 mm, 5000 μg/ml): 15 mm
